The values that follow come from publication PMC5218480 (PLoS ONE, 2017).

The assay relates to MV-4-11 cells. The assay is described as follows: Gene expression microarray analysis (Affymetrix PrimeView) and GSEA. The assay is classed as cell-based, human. Also noted: RFU PODN (11730768_x_at) / Fold change /veh PODN (11730768_x_at) / RFU LINC00158 (11744669_a_at) / Fold change /veh LINC00158 (11744669_a_at) / RFU DUSP10 (11751237_a_at) / Fold change /veh DUSP10 (11751237_a_at) / RFU ID3 (11757404_x_at) / Fold change /veh ID3 (11757404_x_at) / RFU PLEKHG5 (11737974_s_at) / Fold change /veh PLEKHG5 (11737974_s_at) / RFU LRRC4B (11730491_at) / Fold change /veh LRRC4B (11730491_at) / RFU GIMAP4 (11747438_a_at) / Fold change /veh GIMAP4 (11747438_a_at) / RFU KRT8 (11758183_x_at) / Fold change /veh KRT8 (11758183_x_at) / RFU CNN1 (11734310_a_at) / Fold change /veh CNN1 (11734310_a_at) / RFU VPS37D (11726825_at) / Fold change /veh VPS37D (11726825_at) / RFU C10orf10 (11716522_x_at) / Fold change /veh C10orf10 (11716522_x_at) / RFU KIR2DL2 /// KIR2DL4 /// KIR2DL5A /// KIR2DL5B /// KIR2DS1 /// KIR2DS2 /// KIR2DS3 /// KIR2DS4 /// KIR3DL3 /// KIR3DL3 /// KIR3DS1 (11738374_at) / Fold change /veh KIR2DL2 /// KIR2DL4 /// KIR2DL5A /// KIR2DL5B /// KIR2DS1 /// KIR2DS2 /// KIR2DS3 /// KIR2DS4 /// KIR3DL3 /// KIR3DL3 /// KIR3DS1 (11738374_at) / RFU C1QL1 (11718748_at) / Fold change /veh C1QL1 (11718748_at) / RFU TMPRSS4 (11747572_a_at) / Fold change /veh TMPRSS4 (11747572_a_at) / RFU HAMP (11756126_x_at) / Fold change /veh HAMP (11756126_x_at) / RFU RNFT2 (11725882_a_at) / Fold change /veh RNFT2 (11725882_a_at) / RFU NR4A2 (11747474_a_at) / Fold change /veh NR4A2 (11747474_a_at) / RFU ABCC12 (11746883_a_at) / Fold change /veh ABCC12 (11746883_a_at) / RFU TMEM136 (11760407_x_at) / Fold change /veh TMEM136 (11760407_x_at) / RFU CLDN22 /// WWC2 (11732394_at) / Fold change /veh CLDN22 /// WWC2 (11732394_at) / RFU HLA-DPB1 (11760878_x_at) / Fold change /veh HLA-DPB1 (11760878_x_at) / RFU SPINT1 (11716480_a_at) / Fold change /veh SPINT1 (11716480_a_at) / RFU GAP43 (11754022_s_at) / Fold change /veh GAP43 (11754022_s_at) / RFU A4GNT (11735810_at) / Fold change /veh A4GNT (11735810_at) / RFU PRB3 (11715151_x_at) / Fold change /veh PRB3 (11715151_x_at) / RFU TUBB4B (11761932_at) / Fold change /veh TUBB4B (11761932_at) / RFU CAPN14 (11732068_a_at) / Fold change /veh CAPN14 (11732068_a_at) / RFU TMCC2 (11721928_a_at) / Fold change /veh TMCC2 (11721928_a_at) / RFU IRGQ (11745062_a_at) / Fold change /veh IRGQ (11745062_a_at) / RFU FAM174B (11720279_a_at) / Fold change /veh FAM174B (11720279_a_at) / RFU TMPRSS4 (11748680_a_at) / Fold change /veh TMPRSS4 (11748680_a_at) / RFU FAM212B (11763350_a_at) / Fold change /veh FAM212B (11763350_a_at) / RFU PLEKHG5 (11743358_a_at) / Fold change /veh PLEKHG5 (11743358_a_at) / RFU ZSCAN30 (11745921_a_at) / Fold change /veh ZSCAN30 (11745921_a_at) / RFU CMKLR1 (11741424_a_at) / Fold change /veh CMKLR1 (11741424_a_at) / RFU LOC101060620 /// MAPK8IP1 (11723275_at) / Fold change /veh LOC101060620 /// MAPK8IP1 (11723275_at) / RFU SPTSSB (11747773_x_at) / Fold change /veh SPTSSB (11747773_x_at) / RFU PRSS12 (11739890_at) / Fold change /veh PRSS12 (11739890_at) / RFU BIN1 (11741810_x_at) / Fold change /veh BIN1 (11741810_x_at) / RFU WNT11 (11732464_a_at) / Fold change /veh WNT11 (11732464_a_at) / RFU C10orf10 (11716521_a_at) / Fold change /veh C10orf10 (11716521_a_at) / RFU C5orf56 (11738089_at) / Fold change /veh C5orf56 (11738089_at) / RFU CYB561 (11721691_x_at) / Fold change /veh CYB561 (11721691_x_at) / RFU ANKRD19P (11752326_a_at) / Fold change /veh ANKRD19P (11752326_a_at) / RFU OR2T12 /// OR2T33 /// OR2T8 (11738714_s_at) / Fold change /veh OR2T12 /// OR2T33 /// OR2T8 (11738714_s_at) / RFU VCAN (11748164_a_at) / Fold change /veh VCAN (11748164_a_at) / RFU JSRP1 (11732532_at) / Fold change /veh JSRP1 (11732532_at) / RFU KRTAP10-11 (11738290_x_at) / Fold change /veh KRTAP10-11 (11738290_x_at) / RFU MYO3A (11730013_a_at) / Fold change /veh MYO3A (11730013_a_at) / RFU EBF3 (11725865_a_at) / Fold change /veh EBF3 (11725865_a_at) / RFU CAMK2N1 (11719241_x_at) / Fold change /veh CAMK2N1 (11719241_x_at) / RFU C5orf56 (11738088_a_at) / Fold change /veh C5orf56 (11738088_a_at) / RFU OLFML3 (11715873_a_at) / Fold change /veh OLFML3 (11715873_a_at) / RFU LOC100653217 /// NTM (11731650_a_at) / Fold change /veh LOC100653217 /// NTM (11731650_a_at) / RFU MAPK11 (11762145_a_at) / Fold change /veh MAPK11 (11762145_a_at) / RFU FIZ1 (11724087_x_at) / Fold change /veh FIZ1 (11724087_x_at) / RFU OASL (11726364_x_at) / Fold change /veh OASL (11726364_x_at) / RFU SOX15 (11748057_x_at) / Fold change /veh SOX15 (11748057_x_at) / RFU CD79A (11719716_a_at) / Fold change /veh CD79A (11719716_a_at) / RFU HIST1H1D (11736915_at) / Fold change /veh HIST1H1D (11736915_at) / RFU CASKIN2 (11723855_a_at) / Fold change /veh CASKIN2 (11723855_a_at) / RFU LOC730098 (11760151_x_at) / Fold change /veh LOC730098 (11760151_x_at) / RFU OR4N2 (11742367_at) / Fold change /veh OR4N2 (11742367_at) / RFU PRRT2 (11749266_a_at) / Fold change /veh PRRT2 (11749266_a_at) / RFU SNX32 (11753110_a_at) / Fold change /veh SNX32 (11753110_a_at) / RFU CDHR5 (11726645_a_at) / Fold change /veh CDHR5 (11726645_a_at) / RFU RCAN1 (11760418_a_at) / Fold change /veh RCAN1 (11760418_a_at) / RFU FAM167A (11723789_a_at) / Fold change /veh FAM167A (11723789_a_at) / RFU FAM26E (11764081_at) / Fold change /veh FAM26E (11764081_at) / RFU ISYNA1 (11749810_s_at) / Fold change /veh ISYNA1 (11749810_s_at) / RFU ACY1 (11761880_at) / Fold change /veh ACY1 (11761880_at) / RFU 11764098_at / Fold change /veh 11764098_at / RFU SAMD14 (11745864_x_at) / Fold change /veh SAMD14 (11745864_x_at) / RFU NPB (11741838_a_at) / Fold change /veh NPB (11741838_a_at) / RFU TMPRSS6 (11731388_a_at) / Fold change /veh TMPRSS6 (11731388_a_at) / RFU KRTAP10-2 (11738614_at) / Fold change /veh KRTAP10-2 (11738614_at) / RFU ARHGAP8 /// PRR5-ARHGAP8 (11727945_x_at) / Fold change /veh ARHGAP8 /// PRR5-ARHGAP8 (11727945_x_at) / RFU KRTAP5-7 /// NADSYN1 (11734609_at) / Fold change /veh KRTAP5-7 /// NADSYN1 (11734609_at) / RFU RASL12 (11751679_a_at) / Fold change /veh RASL12 (11751679_a_at) / RFU CDKN2B (11736163_a_at) / Fold change /veh CDKN2B (11736163_a_at) / RFU PRF1 (11729649_at) / Fold change /veh PRF1 (11729649_at) / RFU, ZNF638 /// ZNF638-IT1 / Fold change vs veh, ZNF638 /// ZNF638-IT1 / RFU, PANK3 / Fold change vs veh, PANK3 / RFU, SH3YL1 / Fold change vs veh, SH3YL1 / RFU, ZEB2 / Fold change vs veh, ZEB2 / RFU, NRIP1 / Fold change vs veh, NRIP1 / RFU, PTTG1IP / Fold change vs veh, PTTG1IP / RFU, CAPN2 / Fold change vs veh, CAPN2 / RFU, MED14 / Fold change vs veh, MED14 / RFU, SNORA58 / Fold change vs veh, SNORA58 / RFU, C1orf63 / Fold change vs veh, C1orf63 / RFU, LRRFIP1 / Fold change vs veh, LRRFIP1 / RFU, NDUFAF7 / Fold change vs veh, NDUFAF7 / RFU, SLC12A2 / Fold change vs veh, SLC12A2 / RFU, IBTK / Fold change vs veh, IBTK / RFU, ESF1 / Fold change vs veh, ESF1 / Fold change vs veh, TMEM50B / RFU, TAOK1 / Fold change vs veh, TAOK1 / RFU, ACBD3 / Fold change vs veh, ACBD3 / RFU, TMA16 / Fold change vs veh, TMA16 / RFU, RWDD3 / Fold change vs veh, RWDD3 / RFU, BCAT1 / Fold change vs veh, BCAT1 / RFU, EDEM3 / Fold change vs veh, EDEM3 / RFU, TMEM33 / Fold change vs veh, TMEM33 / RFU, WDR75 / Fold change vs veh, WDR75 / RFU, AHCTF1 / Fold change vs veh, AHCTF1 / RFU, TFRC / Fold change vs veh, TFRC / RFU, ZDHHC17 / Fold change vs veh, ZDHHC17 / RFU, NOM1 / Fold change vs veh, NOM1 / RFU, ARL8B / Fold change vs veh, ARL8B / RFU, ZBTB11 / Fold change vs veh, ZBTB11 / RFU, TAMM41 / Fold change vs veh, TAMM41 / RFU, KIAA1704 /// LOC100996395 / Fold change vs veh, KIAA1704 /// LOC100996395 / RFU, ING1 / Fold change vs veh, ING1 / RFU, TRMT61B / Fold change vs veh, TRMT61B / RFU, FUBP3 / Fold change vs veh, FUBP3 / RFU, TP53 / Fold change vs veh, TP53 / RFU, TNKS2 / Fold change vs veh, TNKS2 / RFU, ZFP14 / Fold change vs veh, ZFP14 / RFU, ACTR2 / Fold change vs veh, ACTR2 / RFU, PPP3R1 / Fold change vs veh, PPP3R1 / RFU, PIK3R1 / Fold change vs veh, PIK3R1 / RFU, HNRNPA1 / Fold change vs veh, HNRNPA1 / RFU, RNF170 / Fold change vs veh, RNF170 / RFU, ZNF28 / Fold change vs veh, ZNF28 / RFU, RNGTT / Fold change vs veh, RNGTT / RFU, OGT / Fold change vs veh, OGT / RFU, BRD1 / Fold change vs veh, BRD1 / RFU, MARS / Fold change vs veh, MARS / RFU, ZNF655 / Fold change vs veh, ZNF655 / RFU, FAHD1 / Fold change vs veh, FAHD1 / RFU, BDP1 / Fold change vs veh, BDP1 / RFU, LRRCC1 / Fold change vs veh, LRRCC1 / RFU, ARID1A / Fold change vs veh, ARID1A / RFU, ZNF146 / Fold change vs veh, ZNF146 / RFU, ZNF330 / Fold change vs veh, ZNF330 / RFU, GPN3 / Fold change vs veh, GPN3 / RFU, C9orf123 / Fold change vs veh, C9orf123 / RFU, N4BP2L2 / Fold change vs veh, N4BP2L2 / RFU, ARFIP1 / Fold change vs veh, ARFIP1 / RFU, FAM179B / Fold change vs veh, FAM179B / RFU, BCL10 / Fold change vs veh, BCL10 / RFU, UHRF1BP1L / Fold change vs veh, UHRF1BP1L / RFU, BET1 / Fold change vs veh, BET1 / RFU, CNOT2 / Fold change vs veh, CNOT2 / RFU, ZNF268 / Fold change vs veh, ZNF268 / Fold change vs veh, ZNF507 / RFU, DGCR2 / Fold change vs veh, DGCR2 / RFU, WDSUB1 / Fold change vs veh, WDSUB1 / Fold change vs veh, HSP90B1 /// MIR3652 / RFU, ADSS / Fold change vs veh, ADSS / RFU, GK / Fold change vs veh, GK / RFU, ZNF148 / Fold change vs veh, ZNF148 / RFU, TAF9 / Fold change vs veh, TAF9 / RFU, SLC1A5 / Fold change vs veh, SLC1A5 / RFU, SLMO2 / Fold change vs veh, SLMO2 / RFU, ABCC4 / Fold change vs veh, ABCC4 / RFU, LOC101060439 /// RAP1B / Fold change vs veh, LOC101060439 /// RAP1B / RFU, RFX7 / Fold change vs veh, RFX7 / RFU, GTPBP10 / Fold change vs veh, GTPBP10 / RFU, CNEP1R1 / Fold change vs veh, CNEP1R1 / RFU, BIVM-ERCC5 /// ERCC5 / Fold change vs veh, BIVM-ERCC5 /// ERCC5 / RFU, ILF3 / Fold change vs veh, ILF3 / RFU 11762660_at / Fold change /veh 11762660_at / RFU VCAN (11757783_s_at) / Fold change /veh VCAN (11757783_s_at) / RFU DDX43 (11728927_at) / Fold change /veh DDX43 (11728927_at) / RFU KRT8 (11758188_x_at) / Fold change /veh KRT8 (11758188_x_at) / RFU NKD1 (11759106_at) / Fold change /veh NKD1 (11759106_at) / RFU SRD5A1 (11742802_a_at) / Fold change /veh SRD5A1 (11742802_a_at) / RFU TPSAB1 /// TPSB2 (11721975_s_at) / Fold change /veh TPSAB1 /// TPSB2 (11721975_s_at) / RFU GSTM3 (11746129_a_at) / Fold change /veh GSTM3 (11746129_a_at) / RFU IL23R (11737362_x_at) / Fold change /veh IL23R (11737362_x_at) / RFU TMEM51 (11727254_a_at) / Fold change /veh TMEM51 (11727254_a_at) / RFU PIWIL2 (11732686_x_at) / Fold change /veh PIWIL2 (11732686_x_at) / RFU ORM1 (11744905_x_at) / Fold change /veh ORM1 (11744905_x_at) / RFU CCDC152 (11743942_at) / Fold change /veh CCDC152 (11743942_at) / RFU ECM1 (11717891_a_at) / Fold change /veh ECM1 (11717891_a_at) / RFU IL23R (11748794_a_at) / Fold change /veh IL23R (11748794_a_at) / RFU TNFAIP8L3 (11732012_x_at) / Fold change /veh TNFAIP8L3 (11732012_x_at) / RFU MBOAT4 (11741988_at) / Fold change /veh MBOAT4 (11741988_at) / RFU 11764193_at / Fold change /veh 11764193_at / RFU TMEM53 (11763286_at) / Fold change /veh TMEM53 (11763286_at) / RFU MAGEB2 (11727129_at) / Fold change /veh MAGEB2 (11727129_at) / RFU TMEM200A (11744735_a_at) / Fold change /veh TMEM200A (11744735_a_at) / RFU CCDC152 (11751479_a_at) / Fold change /veh CCDC152 (11751479_a_at) / RFU FAM211A (11726209_a_at) / Fold change /veh FAM211A (11726209_a_at) / RFU RGS16 (11746705_a_at) / Fold change /veh RGS16 (11746705_a_at) / RFU VCAN (11755009_s_at) / Fold change /veh VCAN (11755009_s_at) / RFU RHOB (11743442_s_at) / Fold change /veh RHOB (11743442_s_at) / RFU RGS16 (11720943_a_at) / Fold change /veh RGS16 (11720943_a_at) / RFU RGS16 (11720944_at) / Fold change /veh RGS16 (11720944_at) / RFU, VPS4B / Fold change vs veh, VPS4B / RFU, CREB1 / Fold change vs veh, CREB1 / RFU, DNAJC13 / Fold change vs veh, DNAJC13 / RFU, GNAQ / Fold change vs veh, GNAQ / RFU, CDK5R1 / Fold change vs veh, CDK5R1 / RFU, ZRANB3 / Fold change vs veh, ZRANB3 / RFU, CUL4A / Fold change vs veh, CUL4A / RFU, CCNY / Fold change vs veh, CCNY / RFU, UFL1 / Fold change vs veh, UFL1 / RFU, COG3 / Fold change vs veh, COG3 / RFU, DIAPH2 / Fold change vs veh, DIAPH2 / RFU, SKA2 / Fold change vs veh, SKA2 / RFU, AFF3 / Fold change vs veh, AFF3 / RFU, LMF1 / Fold change vs veh, LMF1 / RFU, IPO11 / Fold change vs veh, IPO11 / RFU, DFFB / Fold change vs veh, DFFB / RFU, FOXP1 / Fold change vs veh, FOXP1 / RFU, CARD8 / Fold change vs veh, CARD8 / RFU, STRN3 / Fold change vs veh, STRN3 / RFU, ADK / Fold change vs veh, ADK / RFU, RASSF2 / Fold change vs veh, RASSF2 / RFU, WIPF1 / Fold change vs veh, WIPF1 / RFU, LARP1B / Fold change vs veh, LARP1B / RFU, RASA1 / Fold change vs veh, RASA1 / RFU, RB1 / Fold change vs veh, RB1 / RFU, PPFIA1 / Fold change vs veh, PPFIA1 / RFU, MAT2A / Fold change vs veh, MAT2A / RFU, CCT5 / Fold change vs veh, CCT5 / RFU, WDR92 / Fold change vs veh, WDR92 / RFU, CUX1 / Fold change vs veh, CUX1 / RFU, TTC7A / Fold change vs veh, TTC7A / RFU, TMEM135 / Fold change vs veh, TMEM135 / RFU, DEPTOR / Fold change vs veh, DEPTOR / RFU, CPM / Fold change vs veh, CPM / RFU, DNAJB6 / Fold change vs veh, DNAJB6 / RFU, CACNA2D3 / Fold change vs veh, CACNA2D3 / RFU, DTX4 / Fold change vs veh, DTX4 / RFU, TFCP2 / Fold change vs veh, TFCP2 / RFU, GMCL1 /// GMCL1P1 / Fold change vs veh, GMCL1 /// GMCL1P1 / RFU, AEBP2 / Fold change vs veh, AEBP2 / RFU, SNHG1 /// SNORD22 /// SNORD25 /// SNORD26 /// SNORD27 /// SNORD28 /// SNORD29 /// SNORD31 / Fold change vs veh, SNHG1 /// SNORD22 /// SNORD25 /// SNORD26 /// SNORD27 /// SNORD28 /// SNORD29 /// SNORD31 / Fold change (Aza/veh), C12orf56 (ProbeSet 11735607_a_at) / Fold change (ACY-1035/veh), C12orf56 (ProbeSet 11735607_a_at) / Fold change (Aza/veh), FGFR1OP (ProbeSet 11751329_s_at) / Fold change (ACY-1035/veh), FGFR1OP (ProbeSet 11751329_s_at) / Fold change (Aza/veh), VPS36 (ProbeSet 11739960_a_at) / Fold change (ACY-1035/veh), VPS36 (ProbeSet 11739960_a_at) / RFU SYPL1 (11715823_x_at) / Fold change /veh SYPL1 (11715823_x_at) / RFU IGFBP7 (11715501_s_at) / Fold change /veh IGFBP7 (11715501_s_at) / RFU REEP3 (11722064_at) / Fold change /veh REEP3 (11722064_at) / RFU IGLL1 (11728026_x_at) / Fold change /veh IGLL1 (11728026_x_at): dose or concentration left out as unconfirmed. To be noted: ProbeSet 11739696_s_at; LIST D.

SMILES strings stand for the structures.

Take `Nc1ncn([C@@H]2O[C@H](CO)[C@@H](O)[C@H]2O)c(=O)n1` [azacitidine]: the “RFU, AFF3” value is reported as 345.70 RFU.
